US9518166B2, “Film forming auxiliary agent composition for emulsion resin” (ADEKA CORPORATION, priority 2013, dated 2016)

What was measured:
Format in all cases: physicochemical
[1] = Test 2: long-term stability test, resin 2; set-up: key: ⊚: homogeneous solution; ◯: no separation, but solution was partially heterogeneous (still can be used); Δ: slight separation was confirmed; X: complete separation or sedimentation was confirmed; conditions: 5 mass % in resin 2, one week at 40° C.
Experimental: (§1) Inventive Products 1 to 14 and Comparative Products 1 to 11 were each compounded at 5 mass % with the test emulsion resins, 80 ml of each product obtained was introduced by 80 ml into a 100-ml screw pipe, closed with a lid and allowed to stay for a week in a thermostat at 40° C. The external appearance of the emulsion resins thereafter was determined according to the following criteria. • ⊚: homogeneous solution • ◯: no separation, but solution was partially heterogeneous (still can be used) • Δ: slight separation was confirmed • X: complete separation or sedimentation was confirmed <Test 3: Water Solubility Confirmation Test>

Boiling point = assay: Boiling point
[2] = Test 2: long-term stability test, resin 1; set-up: key: ⊚: homogeneous solution; ◯: no separation, but solution was partially heterogeneous (still can be used); Δ: slight separation was confirmed; X: complete separation or sedimentation was confirmed; conditions: 5 mass % in resin 1, one week at 40° C.
Experimental: as §1

Row | Compound | Test 2: long-term stability, external appearance [1] | boiling point (Boiling point) [°C] | Test 2: long-term stability, external appearance [2]
1 | CCCCOCCO [Comparative Product 10, butyl cellosolve] | ⊚ | 171 | ⊚
2 | CN1CCCC1=O [Comparative Product 11, N-methylpyrrolidone] | ⊚ | 202 | ⊚
